By Kd is commonly meant the equilibrium constant for the complex coming apart. Read a low Kd as tighter binding.

This passage reports Kd results from paper PMC4503950, “EGCG reverses human neutrophil elastase-induced migration in A549 cells by directly binding to HNE and by regulating α1-AT” (Scientific Reports, 2015).

Structures are written as SMILES.

The target of this assay is T1, human neutrophil elastase (HNE) (Homo sapiens, UniProt P08246).
T1 construct: gene ELANE; Recombinant HNE protein (molecular mass, 25 kDa)
T1 sequence (P08246 30-247): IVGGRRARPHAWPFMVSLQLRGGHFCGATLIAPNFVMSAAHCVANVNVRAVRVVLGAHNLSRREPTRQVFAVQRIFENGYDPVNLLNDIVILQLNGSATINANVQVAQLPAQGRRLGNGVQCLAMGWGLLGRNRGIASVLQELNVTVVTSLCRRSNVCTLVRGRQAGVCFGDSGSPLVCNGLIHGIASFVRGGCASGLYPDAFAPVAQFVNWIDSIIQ
Put plainly: SPR (Biacore […], HNE immobilized on CM5 chip, […] Langmuir fit); also enzyme inhibition with IC50 […]. The assay is classed as binding. For orientation: Surface plasmon resonance follows binding to a sensor surface in real time, without labels.

For `O=C(OC1Cc2c(O)cc(O)cc2OC1c1cc(O)c(O)c(O)c1)c1cc(O)c(O)c(O)c1` (stereo not shown) [EGCG], the Kd was 41.4 µM.
